Measurements: paper PMC8082539 (ACS chemical biology, 2021)

Target: T1, apocarotenoid oxygenase ACO from Synechocystis (Synechocystis sp. PCC 6803, UniProt P74334)
T1 sequence (P74334 1-490): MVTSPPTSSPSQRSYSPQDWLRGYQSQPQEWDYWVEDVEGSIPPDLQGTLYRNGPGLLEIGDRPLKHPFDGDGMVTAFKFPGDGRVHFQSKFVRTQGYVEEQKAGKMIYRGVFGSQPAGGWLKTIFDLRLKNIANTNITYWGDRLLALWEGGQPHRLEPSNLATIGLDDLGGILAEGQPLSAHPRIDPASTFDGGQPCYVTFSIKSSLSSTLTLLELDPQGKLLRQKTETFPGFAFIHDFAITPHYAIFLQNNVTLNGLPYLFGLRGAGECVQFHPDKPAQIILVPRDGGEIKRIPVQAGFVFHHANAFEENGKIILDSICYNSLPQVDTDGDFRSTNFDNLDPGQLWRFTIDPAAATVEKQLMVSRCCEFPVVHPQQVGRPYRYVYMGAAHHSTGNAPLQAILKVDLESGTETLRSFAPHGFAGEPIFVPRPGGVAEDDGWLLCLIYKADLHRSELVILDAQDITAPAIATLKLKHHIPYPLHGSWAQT
Assay: HPLC at […] nm, UV-visible spectra
Assay type: biochemical
Details: product 3-hydroxy-retinal

For CC1=C(/C=C/C(C)=C/C=C/C(C)=C/C=C/C=C(\C)C=O)C(C)(C)C[C@H](O)C1 [3-hydroxy-β-apo-12’-carotenal], the “HPLC at 360 nm, UV-visible spectra” value was “first incubated 3-hydroxy-β-apo-12’-carotenal with the bacterial ACO to produce 3-hydroxy-retinal”.
